US5840684A, “Glycopeptide antibiotic derivatives” (Eli Lilly and Company, priority 1995, dated 1998)
≈ marks a conversion by molar mass, not a printed value.

Tests used:
[1] = system: Streptococcus pyogenes C203; test: broth micro-dilution MIC; format: cell-based
Procedure: (§1) The MIC's were determined using a standard broth micro-dilution assay.

[2] = system: Staphylococcus aureus X400; test: broth micro-dilution MIC; format: cell-based
Procedure: as §1

[3] = system: Staphylococcus aureus 491; test: broth micro-dilution MIC; format: cell-based
Procedure: as §1

[4] = system: Staphylococcus aureus 489; test: broth micro-dilution MIC; format: cell-based
Procedure: as §1

[5] = system: Staphylococcus aureus X778; test: broth micro-dilution MIC; format: cell-based
Procedure: as §1

[6] = system: Staphylococcus aureus 447; test: broth micro-dilution MIC; format: cell-based
Procedure: as §1

[7] = system: Staphylococcus aureus SA1199; test: broth micro-dilution MIC; format: cell-based
Procedure: as §1

[8] = system: Staphylococcus aureus SA1199A; test: broth micro-dilution MIC; format: cell-based
Procedure: as §1

[9] = system: Entercoccus faecium 276; test: broth micro-dilution MIC; format: cell-based
Procedure: as §1

[10] = system: Entercoccus faecium 180-1; test: broth micro-dilution MIC; format: cell-based
Procedure: as §1

[11] = system: Staphylococcus aureus 446; test: broth micro-dilution MIC; format: cell-based
Procedure: as §1

[12] = system: Entercoccus faecium 2041; test: broth micro-dilution MIC; format: cell-based; conditions: Entercoccus faecium 2041
Procedure: (§2) The formula I compounds have in vitro and in vivo activity against Gram-positive pathogenic bacteria. The MIC's were determined using a standard broth micro-dilution assay.

[13] = system: Streptococcus pneumoniae P1; test: broth micro-dilution MIC; format: cell-based
Procedure: as §2

[14] = system: Staphylococcus haemolyticus 105; test: broth micro-dilution MIC; format: cell-based
Procedure: as §2

[15] = system: Enterococcus gallinarum 245; test: broth micro-dilution MIC; format: cell-based; conditions: Enterococcus gallinarum 245
Procedure: as §2

[16] = system: Entercoccus faecium 180; test: broth micro-dilution MIC; format: cell-based; conditions: Entercoccus faecium 180
Procedure: as §2

[17] = system: Staphylococcus epidermidis 270; test: broth micro-dilution MIC; format: cell-based
Procedure: as §2

[18] = system: Staphylococcus haemolyticus 415; test: broth micro-dilution MIC; format: cell-based
Procedure: as §2

[19] = system: Staphylococcus aureus SA1199B; format: cell-based
Procedure: as §1

[20] = system: Staphylococcus aureus S13E; format: cell-based
Procedure: as §1

[21] = system: vancomycin-susceptible enterococci; test: broth micro-dilution, mean geometric MIC; format: cell-based, Enterococcus faecium and Enterococcus faecalis; conditions: enterococci, 24-hour incubation
[22] = system: vancomycin-resistant enterococci; test: broth micro-dilution, mean geometric MIC; format: cell-based, Enterococcus faecium and Enterococcus faecalis; conditions: enterococci, 24-hour incubation

Structure (SMILES) | MIC [1] | MIC [2] | MIC [3] | MIC [4] | MIC [5] | MIC [6] | MIC [7] | MIC [8] | MIC [9] | MIC [10] | MIC [11] | MIC [12] | MIC [13] | MIC [14] | MIC [15] | MIC [16] | MIC [17] | MIC [18] | MIC [19] | MIC [20] | also measured
CCCCCCCCCCC#CCNC1(C)CC(OC2C(Oc3c4cc5cc3Oc3ccc(cc3Cl)C(OC3CC(C)(N)C(O)C(C)O3)C3NC(=O)C(NC(=O)C5NC(=O)C(CC(N)=O)NC(=O)C(NC(=O)C(CC(C)C)NC)C(O)c5ccc(c(Cl)c5)O4)c4ccc(O)c(c4)-c4c(O)cc(O)cc4C(C(=O)O)NC3=O)OC(CO)C(O)C2O)OC(C)C1O (stereo not drawn) [Compound 191] | ≤ 0.06 µg/mL | 1 µg/mL (≈ 0.565 µM) | 1 µg/mL (≈ 0.565 µM) | 2 µg/mL (≈ 1.13 µM) | 2 µg/mL (≈ 1.13 µM) | 2 µg/mL (≈ 1.13 µM) | 2 µg/mL (≈ 1.13 µM) | 0.5 µg/mL (≈ 0.282 µM) | 4 µg/mL (≈ 2.26 µM) | 0.25 µg/mL (≈ 0.141 µM) | 2 µg/mL (≈ 1.13 µM) | 1 µg/mL (≈ 0.565 µM) | ≤ 0.06 µg/mL | 2 µg/mL (≈ 1.13 µM) | 8 µg/mL (≈ 4.52 µM) | 4 µg/mL (≈ 2.26 µM) | 2 µg/mL (≈ 1.13 µM) | 8 µg/mL (≈ 4.52 µM) | 2 µg/mL (≈ 1.13 µM) | 2 µg/mL (≈ 1.13 µM) | mean geometric MIC, Vancomycin Sensitive Strains [21]: 0.57 µg/mL; mean geometric MIC, Vancomycin Resistant Strains [22]: 6.7 µg/mL
CNC(CC(C)C)C(=O)NC1C(=O)NC(CC(N)=O)C(=O)NC2C(=O)NC3C(=O)NC(C(=O)NC(C(=O)O)c4cc(O)cc(O)c4-c4cc3ccc4O)C(OC3CC(C)(N)C(O)C(C)O3)c3ccc(c(Cl)c3)Oc3cc2cc(c3OC2OC(CO)C(O)C(O)C2OC2CC(C)(NCc3cccc(OC4CCCCC4)c3)C(O)C(C)O2)Oc2ccc(cc2Cl)C1O (stereo not drawn) [Compound 153] | ≤ 0.06 µg/mL | 0.5 µg/mL (≈ 0.281 µM) | 0.125 µg/mL (≈ 0.0702 µM) | 1 µg/mL (≈ 0.562 µM) | 0.5 µg/mL (≈ 0.281 µM) | 0.5 µg/mL (≈ 0.281 µM) | 0.5 µg/mL (≈ 0.281 µM) | ≤ 0.06 µg/mL | 0.5 µg/mL (≈ 0.281 µM) | ≤ 0.06 µg/mL | 0.5 µg/mL (≈ 0.281 µM) | ≤ 0.06 µg/mL | ≤ 0.06 µg/mL | 2 µg/mL (≈ 1.12 µM) | 1 µg/mL (≈ 0.562 µM) | 0.125 µg/mL (≈ 0.0702 µM) | 0.25 µg/mL (≈ 0.14 µM) | 1 µg/mL (≈ 0.562 µM) | 0.25 µg/mL (≈ 0.14 µM) | 0.125 µg/mL (≈ 0.0702 µM) | mean geometric MIC, Vancomycin Sensitive Strains [21]: 0.083 µg/mL; mean geometric MIC, Vancomycin Resistant Strains [22]: 1.4 µg/mL
CNC(CC(C)C)C(=O)NC1C(=O)NC(CC(N)=O)C(=O)NC2C(=O)NC3C(=O)NC(C(=O)NC(C(=O)O)c4cc(O)cc(O)c4-c4cc3ccc4O)C(OC3CC(C)(N)C(O)C(C)O3)c3ccc(c(Cl)c3)Oc3cc2cc(c3OC2OC(CO)C(O)C(O)C2OC2CC(C)(NCc3cccc(Sc4ccc(C(C)(C)C)cc4)c3)C(O)C(C)O2)Oc2ccc(cc2Cl)C1O (stereo not drawn) [Compound 228] | 0.125 µg/mL (≈ 0.0677 µM) | 1 µg/mL (≈ 0.541 µM) | 1 µg/mL (≈ 0.541 µM) | 2 µg/mL (≈ 1.08 µM) | 4 µg/mL (≈ 2.17 µM) | 4 µg/mL (≈ 2.17 µM) | 4 µg/mL (≈ 2.17 µM) | ≤ 0.06 µg/mL | 1 µg/mL (≈ 0.541 µM) | ≤ 0.06 µg/mL | 4 µg/mL (≈ 2.17 µM) | 0.25 µg/mL (≈ 0.135 µM) | ≤ 0.06 µg/mL | 2 µg/mL (≈ 1.08 µM) | 4 µg/mL (≈ 2.17 µM) | 1 µg/mL (≈ 0.541 µM) | 2 µg/mL (≈ 1.08 µM) | 4 µg/mL (≈ 2.17 µM) | 4 µg/mL (≈ 2.17 µM) | 8 µg/mL (≈ 4.33 µM) | mean geometric MIC, Vancomycin Sensitive Strains [21]: 0.14 µg/mL; mean geometric MIC, Vancomycin Resistant Strains [22]: 1.0 µg/mL
CNC(CC(C)C)C(=O)NC1C(=O)NC(CC(N)=O)C(=O)NC2C(=O)NC3C(=O)NC(C(=O)NC(C(=O)O)c4cc(O)cc(O)c4-c4cc3ccc4O)C(OC3CC(C)(N)C(O)C(C)O3)c3ccc(c(Cl)c3)Oc3cc2cc(c3OC2OC(CO)C(O)C(O)C2OC2CC(C)(NCc3c4ccccc4cc4ccccc34)C(O)C(C)O2)Oc2ccc(cc2Cl)C1O (stereo not drawn) [Compound 13] | ≤ 0.06 µg/mL | 1 µg/mL (≈ 0.561 µM) | 2 µg/mL (≈ 1.12 µM) | 1 µg/mL (≈ 0.561 µM) | 2 µg/mL (≈ 1.12 µM) | 8 µg/mL (≈ 4.49 µM) | 0.5 µg/mL (≈ 0.28 µM) | ≤ 0.06 µg/mL | 0.5 µg/mL (≈ 0.28 µM) | ≤ 0.06 µg/mL | 2 µg/mL (≈ 1.12 µM) | 0.125 µg/mL (≈ 0.0701 µM) | ≤ 0.06 µg/mL | 8 µg/mL (≈ 4.49 µM) | 0.25 µg/mL (≈ 0.14 µM) | 2 µg/mL (≈ 1.12 µM) | 8 µg/mL (≈ 4.49 µM) | 1 µg/mL (≈ 0.561 µM) | 4 µg/mL (≈ 2.24 µM) | 0.25 µg/mL (≈ 0.14 µM) | mean geometric MIC, Vancomycin Sensitive Strains [21]: 0.76 µg/mL; mean geometric MIC, Vancomycin Resistant Strains [22]: 19 µg/mL
CN[C@H](CC(C)C)C(=O)N[C@H]1C(=O)N[C@@H](CC(N)=O)C(=O)N[C@H]2C(=O)N[C@H]3C(=O)N[C@H](C(=O)N[C@H](C(=O)O)c4cc(O)cc(O)c4-c4cc3ccc4O)[C@H](O[C@H]3C[C@](C)(N)[C@@H](O)[C@H](C)O3)c3ccc(c(Cl)c3)Oc3cc2cc(c3O[C@@H]2O[C@H](CO)[C@@H](O)[C@H](O)[C@H]2O[C@H]2C[C@](C)(NCc3cccc(-c4ccccc4)c3)[C@@H](O)[C@H](C)O2)Oc2ccc(cc2Cl)[C@H]1O [Compound 91] | ≤ 0.06 µg/mL | 0.5 µg/mL (≈ 0.284 µM) | 1 µg/mL (≈ 0.569 µM) | ≤ 0.06 µg/mL | ≤ 0.06 µg/mL | 0.5 µg/mL (≈ 0.284 µM) | ≤ 0.06 µg/mL | ≤ 0.06 µg/mL | ≤ 0.06 µg/mL | ≤ 0.06 µg/mL | 0.5 µg/mL (≈ 0.284 µM) | ≤ 0.06 µg/mL | ≤ 0.06 µg/mL | 2 µg/mL (≈ 1.14 µM) | 2 µg/mL (≈ 1.14 µM) | 0.5 µg/mL (≈ 0.284 µM) | 0.5 µg/mL (≈ 0.284 µM) | 2 µg/mL (≈ 1.14 µM) | 0.5 µg/mL (≈ 0.284 µM) | ≤ 0.06 µg/mL | mean geometric MIC, Vancomycin Sensitive Strains [21]: 0.11 µg/mL; mean geometric MIC, Vancomycin Resistant Strains [22]: 2.8 µg/mL
CNC(CC(C)C)C(=O)NC1C(=O)NC(CC(N)=O)C(=O)NC2C(=O)NC3C(=O)NC(C(=O)NC(C(=O)O)c4cc(O)cc(O)c4-c4cc3ccc4O)C(OC3CC(C)(N)C(O)C(C)O3)c3ccc(c(Cl)c3)Oc3cc2cc(c3OC2OC(CO)C(O)C(O)C2OC2CC(C)(NCc3cccc(Oc4ccc(Cl)cc4)c3)C(O)C(C)O2)Oc2ccc(cc2Cl)C1O (stereo not drawn) [Compound 86] | ≤ 0.06 µg/mL | 1 µg/mL (≈ 0.553 µM) | 1 µg/mL (≈ 0.553 µM) | 1 µg/mL (≈ 0.553 µM) | 1 µg/mL (≈ 0.553 µM) | 0.5 µg/mL (≈ 0.276 µM) | 0.5 µg/mL (≈ 0.276 µM) | ≤ 0.06 µg/mL | ≤ 0.06 µg/mL | ≤ 0.06 µg/mL | 1 µg/mL (≈ 0.553 µM) | ≤ 0.06 µg/mL | ≤ 0.06 µg/mL | 1 µg/mL (≈ 0.553 µM) | 1 µg/mL (≈ 0.553 µM) | ≤ 0.06 µg/mL | 1 µg/mL (≈ 0.553 µM) | 1 µg/mL (≈ 0.553 µM) | 1 µg/mL (≈ 0.553 µM) | 1 µg/mL (≈ 0.553 µM) | mean geometric MIC, Vancomycin Sensitive Strains [21]: 0.036 µg/mL; mean geometric MIC, Vancomycin Resistant Strains [22]: 1.4 µg/mL
